According to BindingDB's records for doi:10.1016/s0960-894x(00)00605-3 (Merck Research Laboratories, 2001):

Target: histone deacetylase enzyme from partially purified extracts of Eimeria tenella
Test: ChEBML_79057
Description: Inhibitory activity against histone deacetylase enzyme derived from partially purified extracts of Eimeria tenella protozoa using [3H]11 as radioligand

SMILES | IC50
CCC(=O)CCCCC[C@@H]1NC(=O)[C@H]2CCCCN2C(=O)[C@H]([C@@H](C)CC)NC(=O)[C@H](CC2CN(OC)c3ccc(Br)cc32)NC1=O (stereo not given in full) | 2500 nM
CCC(=O)CCCCC[C@@H]1NC(=O)[C@H]2CCCCN2C(=O)[C@H]([C@@H](C)CC)NC(=O)[C@H](c2cnc3ccccc3c2N2CCCCC2)NC1=O | 0.8 nM
CCC(=O)CCCCC[C@@H]1NC(=O)[C@H]2CCCCN2C(=O)[C@H]([C@@H](C)CC)NC(=O)[C@H](Cc2c(Br)[nH]c3ccccc23)NC1=O | 200 nM
CCC(=O)CCCCC[C@@H]1NC(=O)[C@H]2CCCCN2C(=O)[C@H]([C@@H](C)CC)NC(=O)[C@H](c2cnc3ccccc3c2Cl)NC1=O | 2 nM
CCC(=O)CCCCC[C@@H]1NC(=O)[C@H]2CCCCN2C(=O)[C@H]([C@@H](C)CC)NC(=O)[C@H](Cc2cn(OC)c3ccc(Br)cc23)NC1=O | 175 nM

Now from value to compound:

IC50 | SMILES
5 nM | CCC(=O)CCCCC[C@@H]1NC(=O)[C@H]2CCCCN2C(=O)[C@H]([C@@H](C)CC)NC(=O)[C@H](Cc2cn(C)c3ccccc23)NC1=O
100 nM | CCC(=O)CCCCC[C@@H]1NC(=O)[C@H]2CCCCN2C(=O)[C@H]([C@@H](C)CC)NC(=O)[C@H](Cc2cn(CC)c3ccccc23)NC1=O
1 nM | CCC(=O)CCCCC[C@@H]1NC(=O)[C@H]2CCCCN2C(=O)[C@H]([C@@H](C)CC)NC(=O)[C@H](Cc2c[nH]c3ccccc23)NC1=O
23 nM | CCC(=O)CCCCCc1[nH]c(O)c2n(c(O)c([C@@H](C)CC)[nH]c(=O)c(C(O)c3c[nH]c4ccccc34)nc1O)CCCC2 (stereo not given in full)
25 nM | CCC(=O)CCCCC[C@@H]1NC(=O)[C@H]2CCCCN2C(=O)[C@H]([C@@H](C)CC)NC(=O)[C@H](Cc2c(-c3ccc4c(ccn4C)c3)[nH]c3ccccc23)NC1=O
4 nM | CCC(=O)CCCCC[C@@H]1NC(=O)[C@H]2CCCCN2C(=O)[C@H]([C@@H](C)CC)NC(=O)[C@H](c2cn(OC)c3ccccc3c2=O)NC1=O
33 nM | CCC(=O)CCCCCc1[nH]c(O)c2n(c(O)c([C@@H](C)CC)[nH]c(=O)c(CC(O)c3ccccc3[N+](=O)[O-])nc1O)CCCC2 (stereo not given in full)
3 nM | CCC(=O)CCCCC[C@@H]1NC(=O)[C@H]2CCCCN2C(=O)[C@H]([C@@H](C)CC)NC(=O)[C@H](CCOc2ccccc2)NC1=O
4 nM | CCCn1cc(C(O)c2nc(O)c(CCCCCC(=O)CC)[nH]c(O)c3n(c(O)c([C@@H](C)CC)[nH]c2=O)CCCC3)c2ccccc21 (stereo not given in full)
100 nM | CCC(=O)CCCCC[C@@H]1NC(=O)[C@H]2CCCCN2C(=O)[C@H]([C@@H](C)CC)NC(=O)[C@H](Cc2cn(CC(=O)O)c3ccccc23)NC1=O
11 nM | CCC(=O)CCCCC[C@@H]1NC(=O)[C@H]2CCCCN2C(=O)[C@H]([C@@H](C)CC)NC(=O)[C@H](c2cn(CC)c3ccccc3c2=O)NC1=O
30 nM | CCC(=O)CCCCCc1[nH]c(O)c2n(c(O)c([C@@H](C)CC)[nH]c(=O)c(C(O)c3ccc4c(ccn4C)c3)nc1O)CCCC2 (stereo not given in full)

Target: not listed separately
Test: Inhibitory activity against histone deacetylase enzyme derived from partially purified extracts of Eimeria tenella protozoa using [3H]11 as radioligand

SMILES | IC50
CCC(=O)CCCCC[C@@H]1NC(=O)[C@H]2CCCCN2C(=O)[C@H]([C@@H](C)CC)NC(=O)[C@H](C(=O)c2c[nH]c3ccccc23)NC1=O | 10 nM

Target: Histone deacetylase (Eimeria tenella)
Test: Binding affinity towards HDAC enzyme derived from Eimeria tenella protozoa

SMILES | Ki
CCC(=O)CCCCC[C@@H]1NC(=O)[C@H]2CCCCN2C(=O)[C@H]([C@@H](C)CC)NC(=O)[C@H](c2cnc3ccccc3c2O)NC1=O | 10 nM
CCC(=O)CCCCC[C@@H]1NC(=O)[C@H]2CCCCN2C(=O)[C@H]([C@@H](C)CC)NC(=O)[C@H](c2cn(OC)c3ccccc3c2=O)NC1=O | 30 nM
CCC(=O)CCCCC[C@@H]1NC(=O)[C@H]2CCCCN2C(=O)[C@H]([C@@H](C)CC)NC(=O)[C@H](c2cnc3ccccc3c2N2CCCCC2)NC1=O | 20 nM
CCC(=O)CCCCC[C@@H]1NC(=O)[C@H]2CCCCN2C(=O)[C@H]([C@@H](C)CC)NC(=O)[C@@H](c2cnc3ccccc3c2O)NC1=O | 250 nM
CCC(=O)CCCCC[C@@H]1NC(=O)[C@H]2CCCCN2C(=O)[C@H]([C@@H](C)CC)NC(=O)[C@H](c2cn(CC)c3ccccc3c2=O)NC1=O | 70 nM
CCC(=O)CCCCC[C@@H]1NC(=O)[C@H]2CCCCN2C(=O)[C@H]([C@@H](C)CC)NC(=O)[C@H](c2cnc3ccccc3c2Cl)NC1=O | 50 nM
CCCCCCCCCCC(=O)C[C@@H]1NC(=O)[C@H](CCCCCC(=O)CC)NC(=O)[C@H]2CCCCN2C(=O)[C@H]([C@@H](C)CC)NC1=O | > 1000 nM
